14 compounds from patent publication US20260184738A1 (priority 2023, published 2026) can be followed below.

SMILES strings stand for the structures. Where two headings read alike, the source gives them in different places.

One series concerns CHIKV. The experiment in a line: Antiviral activity against CHIKV. The class given is cell-based. The settings on record: Chikungunya virus.
Series [1] in a line: in vitro.
The next series has as its system EBOV (VP30, Huh). The experiment in a line: microbe, parasite or virus in culture. The settings on record: for EC50: read-out: EC50, EBOV (VP30, Huh). The class given is cell-based, Ebola Virus.
Series [2] is described as follows: in vitro. The settings on record: human.
For another series, the system named is DENV2. The experiment in a line: Antiviral activity against DENV2. Format: cell-based. The settings on record: Dengue Virus 2.
For a further series, the system named is SARS-CoV-2 (Omicron). Briefly: microbe, parasite or virus in culture. The class given is cell-based. The settings on record: Severe acute respiratory syndrome coronavirus 2, Calu-3, read-out: IC50, SARS-CoV-2 (Omicron) (Calu3) #1.
A further series has as its system DENV4. Briefly: Antiviral activity against DENV4. Format: cell-based. The settings on record: Dengue Virus 4.
Series [3] is described as follows: Cytotoxicity (CC50) alongside DENV2 assay.
The nature of series [4]: Cytotoxicity (CC50) alongside SARS-CoV-2 WA-1 assay, lab #1. The settings on record: human, A549 cells.
A short description of series [5]: Cytotoxicity (CC50) alongside SARS-CoV-2 WA-1 assay, lab #2. The settings on record: human, A549 cells.
Series [6] has as its system SARS-CoV-2 (WA-1). The experiment in a line: microbe, parasite or virus in culture. The class given is cell-based. The settings on record: Severe acute respiratory syndrome coronavirus 2, A549, read-out: IC50, SARS-CoV-2 (WA-1) #2.
The test system of series [7] is SARS-CoV-2 (WA-1). The experiment in a line: microbe, parasite or virus in culture. Format: cell-based. The settings on record: Severe acute respiratory syndrome coronavirus 2, A549, read-out: IC50, SARS-CoV-2 (WA-1) #1.
Series [8] in a line: Cytotoxicity (CC50) alongside SARS-CoV-2 (A549-hACE2) assay. The settings on record: human, A549-hACE2 cells.
Series [9] can be described thus: in vitro. This is another data set of the same source.
For another series, the system named is VEEV. The experiment in a line: microbe, parasite or virus in culture. The class given is cell-based. The settings on record: Venezuelan equine encephalitis virus, read-out: EC50, VEEV.
Another series concerns SARS-CoV-2 (A549-hACE2). Briefly: microbe, parasite or virus in culture. Format: cell-based.
Series [10] in a line: Cytotoxicity (CC50) alongside DENV4 assay.
The subject of a further series is OC43. The experiment in a line: Antiviral activity against OC43 (Huh 7.5 IFITM3). The class given is cell-based, human coronavirus. The settings on record: Betacoronavirus 1, OC43, Huh7.5.
[11] abbreviates: Zaire ebolavirus, Huh-7, read-out: IC50, EBOV (VP30, Huh).

With `CC(C)OC(=O)[C@H](C)N[P@](=O)(OC[C@H]1O[C@@H](n2cnc3sc4c(=O)[nH]cnc4c32)C(O)C1O)Oc1ccccc1` (stereo in doubt) [CEM-010], the IC50 (in general, the concentration needed to halve the response being measured) with CHIKV turned out to be 82.5 µM. Also, the CC50 in “in vitro [1]” is above 100 µM.

With `CC1(F)C(O)[C@@H](CO)O[C@H]1n1cnc2sc3c(N)nc(N)nc3c21` (stereo in doubt) [CEM-024, 2′-deoxy-2′-fluoro-2′-C-methyl-1′-[(5,7-diaminoimidazo-[4′,5′:4,5]thieno[3,2-d]pyrimidin-3-yl)]-β-D-ribofuranose], the IC50 in the series with EBOV (VP30, Huh) (setting [11]) worked out at 31 µM. Further, the CC50 in the series “in vitro [2]” was 11 µM.

Consider `Nc1nc(N)c2sc3ncn([C@@H]4O[C@H](CO)C(O)C4O)c3c2n1` (stereo partly drawn) [CEM-007, 1-[(5,7-diaminoimidazo-[4′,5′:4,5]thieno[3,2-d]pyrimidin-3-yl)]-β-D-ribofuranose-2,3,5-Triol], for which the IC50 in the series with DENV2 turned out to be 45 µM; in the series with SARS-CoV-2 (Omicron) it was 56.4 µM; in the series with DENV4, 64 µM; with EBOV (VP30, Huh) (setting [11]), 15.2 µM; with EBOV (VP30, Huh) (read-out: IC50, EBOV (VP30, Huh)) it was 11.7 µM. Moreover, the EC50 – broadly, the concentration at which the effect is half-maximal – in the series on EBOV (VP30, Huh) (Zaire ebolavirus) turned out to be 40.5 µM. Further, the CC50 in “in vitro [2]” was above 100 µM.

`CC(C)OC(=O)[C@H](C)N[P@](=O)(OC[C@H]1O[C@@H](n2cnc3sc4c(N)ncnc4c32)C(O)C1O)Oc1ccccc1` (stereo partly shown) [CEM-012]: in the series with EBOV (VP30, Huh) (setting [11]), the IC50 was determined as 49.3 µM. The CC50 in the series “in vitro [2]” came out at 17.7 µM.

Consider `CC(C)OC(=O)[C@H](C)N[P@](=O)(OC[C@H]1O[C@@H](n2cnc3sc(C(N)=O)c(N)c32)C(O)C1O)Oc1ccccc1` (stereo partly shown) [CEM-015], for which the IC50 in the series on CHIKV was found to be 93.9 µM.

Turning to `Nc1nc2c(sc3ncn([C@@H]4O[C@H](CO)C(O)C4O)c32)c(=O)[nH]1` (stereo partly drawn) [CEM-021, 1-[(5-Aminoimidazo[4′,5′:4,5]thieno[3,2-d]pyrimidin-3-yl-7-one)]-β-D-ribofuranose 2,3,5-Triol], the IC50 in the series on DENV2 is 73.5 µM; in the series with DENV4, 100 µM; in the series on EBOV (VP30, Huh) (setting [11]), 43.6 µM. The CC50 is above 100 µM in [3] and 60.5 µM in the series “in vitro [2]”.

In the case of `COc1nc(OC)c2sc3ncn([C@@H]4O[C@H](CO)C(O)C4O)c3c2n1` (stereo partly drawn) [CEM-028, 1-[(5,7-dimethoxyimidazo-[4′,5′:4,5]thieno[3,2-d]pyrimidin-3-yl)]-β-D-ribofuranose-2,3,5-Triol], the IC50 with EBOV (VP30, Huh) (setting [11]) came to 48 µM. The compound also yielded a CC50 in the series “in vitro [2]” of 138 µM.

For `COc1nc(OC)c2sc3ncn([C@@H]4O[C@H](CO[P@@](=O)(N[C@@H](C)C(=O)OC(C)C)Oc5ccccc5)C(O)C4O)c3c2n1` (stereo partly shown) [CEM-036], the IC50 in the series with DENV2 was 24 µM; in the series with SARS-CoV-2 (Omicron) it was above 100 µM; in the series with DENV4 it was 34 µM; in the series with SARS-CoV-2 (WA-1) [6] it was 48.4 µM; with EBOV (VP30, Huh) (setting [11]), 37.7 µM; in the series with SARS-CoV-2 (WA-1) [7], 21.6 µM. For the same compound, the CC50 in series [4], in series [5] and in [3] was above 100 µM each time.

As for `CC(C)OC(=O)[C@H](C)N[P@@](=O)(Oc1ccccc1)OC1[C@@H](CO[P@@](=O)(N[C@@H](C)C(=O)OC(C)C)Oc2ccccc2)O[C@@H](n2cnc3sc4c(N)nc(N)nc4c32)C1(C)F` (stereo partly shown) [CEM-042], the IC50 in the series on DENV2 was found to be 3.5 µM; in the series with SARS-CoV-2 (Omicron), 7.36 µM; with DENV4, 7.5 µM; with SARS-CoV-2 (WA-1) [6], 5.89 µM; in the series on EBOV (VP30, Huh) (setting [11]), 11.6 µM; with SARS-CoV-2 (WA-1) [7] it was 3.58 µM. Also, the IC90 – broadly, the point of the concentration-response curve where the effect stands at 90% – in the series with DENV2 was 6.8 µM; in the series with DENV4, 25 µM. Moreover, the CC50 (in series [8]; in “in vitro [9]”; in series [4]; in [5]; in [3]; in [10]) was above 100 µM throughout. The compound further returned a CC50 in “in vitro [1]” above 100 µM. The EC50 in the series on VEEV came out at 86.7 µM; with SARS-CoV-2 (A549-hACE2) (Severe acute respiratory syndrome coronavirus 2, read-out: EC50, SARS-CoV-2 (A549-hACE2)) it was 5.89 µM; in the series on CHIKV, 24.6 µM; in the series with OC43 it was 1500 nM. In addition, in the series on SARS-CoV-2 (A549-hACE2) (Severe acute respiratory syndrome coronavirus 2, read-out: EC90, SARS-CoV-2 (A549-hACE2)), the EC90 (commonly the concentration needed for an effect of 90%) worked out at 6.5 µM.

On to `CCC(CC)COC(=O)[C@H](C)N[P@](=O)(OC[C@H]1O[C@@H](n2cnc3sc4c(N)nc(N)nc4c32)C(C)(F)C1O)Oc1ccccc1` (stereo partly shown) [CEM-052], for which the IC50 worked out at 19 µM in the series with DENV2, 20.6 µM with SARS-CoV-2 (Omicron) and 16 µM in the series with DENV4. In [10], this compound registered a CC50 of 33 µM. Also, the EC50 in the series with EBOV (VP30, Huh) (Zaire ebolavirus) was determined as 9.1 µM; in the series on EBOV (VP30, Huh), 11.4 µM.

`CCC(CC)COC(=O)[C@H](C)N[P@@](=O)(Oc1ccccc1)OC1[C@@H](CO[P@@](=O)(N[C@@H](C)C(=O)OCC(CC)CC)Oc2ccccc2)O[C@@H](n2cnc3sc4c(N)nc(N)nc4c32)C1(C)F` (stereo partly shown) [CEM-053]: the IC50 with DENV2 worked out at 18 µM; in the series with SARS-CoV-2 (Omicron), 21.9 µM; in the series on DENV4, 2.9 µM; in the series with SARS-CoV-2 (WA-1) [6], 2.95 µM. Also, the CC50 in series [10] is above 50 µM. In addition, the EC50 with EBOV (VP30, Huh) (Zaire ebolavirus) came to 4.5 µM; in the series with EBOV (VP30, Huh), 6.7 µM.

In the case of `CC(C)OC(=O)[C@H](C)N[P@](=O)(OC[C@H]1O[C@@H](n2cnc3sc4c(N)nc(N)nc4c32)C(C)(F)C1OC(=O)C(C)C)Oc1ccccc1` (stereo partly shown) [CEM-054], the results for the IC50 in the series with DENV2, in the series with SARS-CoV-2 (Omicron) and in the series with DENV4 were 22 µM, 37.9 µM and 10 µM, respectively. Besides, the CC50 in series [10] is 32 µM. Besides, the EC50 in the series with EBOV (VP30, Huh) (Zaire ebolavirus) was 10.8 µM; with EBOV (VP30, Huh) it was 11.2 µM.

Turning to `CCC(CC)COC(=O)[C@H](C)N[P@](=O)(OC[C@H]1O[C@@H](n2cnc3sc4c(N)nc(N)nc4c32)[C@](C)(F)C1OC(=O)C(C)C)Oc1ccccc1` (stereo partly shown) [CEM-055], the IC50 in the series with SARS-CoV-2 (Omicron) came out at 19.6 µM; in the series with SARS-CoV-2 (WA-1) [6], 11.9 µM. The EC50 in the series on EBOV (VP30, Huh) (Zaire ebolavirus) came out at 6.2 µM; in the series with EBOV (VP30, Huh), 10.1 µM.

Turning to `CCC(CC)COC(=O)[C@H](C)N[P@](=O)(OC[C@H]1O[C@@H](n2cnc3sc4c(N)nc(N)nc4c32)C(O)C1O)Oc1ccccc1` (stereo partly shown) [CEM-056], the IC50 was found to be 59.3 µM in the series on SARS-CoV-2 (Omicron) and 44.7 µM with SARS-CoV-2 (WA-1) [6]. Moreover, the EC50 in the series with EBOV (VP30, Huh) (Zaire ebolavirus) came to 22.1 µM.
